Consider one molecule from patent US20220401385A1, “Combination Therapy Based on PD-1 Signaling Inhibitors” (Kyoto University, priority 2019, published 2022).

For this experiment, the system named is MC38 cells. Nature of the experiment: MC38 mouse therapy model, tumor growth and survival. The experiment is classed as in vivo, C57BL/6 mice. The method, then: FIG. 1-1 a) CD8^+ T cells or CD3^+ T cells were isolated from mice, and 2×10^5 cells were stimulated with CD3/CD28 beads in 96-well U plates. After 24 hours and 48 hours, cells and culture supernatant were collected, followed by measurement of spermidine (SPD) concentration by mass spectrometry. […] Ten days after inoculation, PD-L1 antibody (2 mg/kg), PD-L1 antibody+SPD (2 mg/kg), or SPD alone was administered. Subsequently, PD-L1 antibody was administered 4 times at a regular interval of 5 days, and SPD was administered 8 times at a regular interval of 3 days. Tumor growth curve and survival curve are shown. c) Draining lymph nodes (DLNs) of mice were isolated 13 days after tumor inoculation, and stained with antibodies to CD8, CD44 and CD62L. The number of cells in draining lymph node (cells/DLN) in each treatment group is shown at the left side. After being gated, CD8^+ T cells were fractionated with CD44 and CD62L into P1 to P4 cell populations. Percentages and cell numbers of P1 to P4 in each treatment group are shown. d) Tumor was isolated 13 days after tumor inoculation and treated with collagenase. Percentages and numbers per mg tumor of tumor-infiltrating CD8^+ CD45.2^+ cells are shown. For statistical analysis, ANOVA was used. * p<0.05, ** p<0.01, *** p<0.001, **** p<0.0001.
FIG. 8 MC38 cells (5×10^5) were intradermally inoculated into C57BL/6 mice. Ten days after inoculation, PD-L1 antibody (2 mg/kg), PD-L1 antibody+SPD (2 mg/kg) or PD-L1 antibody+SPM (6 mg/kg) was administered. Subsequently, […] was administered 4 times at a regular interval of 5 days, whereas SPD and SPM were administered 8 times at a regular interval of 3 days. Tumor growth curve is shown.
MC38 cells (5×10^5) were intradermally injected on the right flank. Ten days after inoculation, PD-L1 antibody (1-111A; prepared by and stored at the Department of Immunology and Genomic Medicine, Graduate School of Medicine, Kyoto University) (Immunology Letters 84 (2002) 57-62) (2 mg/kg), PD-L1 antibody+SPD (2 mg/kg) or SPD alone was administered to mice. Subsequently, PD-L1 antibody was administered 4 times at a regular interval of 5 days, and SPD was administered 8 times at a regular interval of 3 days. Tumors were measured on every alternate day, and tumor volumes were calculated using the formula for typical ellipsoid, π×(length×breadth×height/6).

Each structure is given as a SMILES string.

Consider `NCCCNCCCCNCCCN` [SPM, spermine], for which, under “SPM 6 mg/kg versus SPD 2 mg/kg, each + PD-L1 antibody, MC38”, the “effectiveness compared with SPD in enhancing the antitumor effect of PD-1 inhibitory antibody” value is on record as “slightly less effective than SPD”. Where the note is “SPM (6 mg/kg) + PD-L1 antibody (2 mg/kg), MC38 in C57BL/6 mice”, the “enhancement of the antitumor effect of PD-1 inhibitory antibody” value is given as “induced to some extent an enhancement”.
